Assays:
[1] = test system: Candida albicans (ATCC 36082); assay: Solid-phase antimicrobial assay of kinocidins; type: cell-based; details: C. albicans; pH 5.5 or 7.5, not separated; 0.5 nmol/well
Protocol: (§1) Peptides (0.5 nmol) were introduced into wells in agarose plates buffered with MES (2.0 mM, pH 5.5) or PIPES (10.0 mM, pH 7.5). Antimicrobial activity was assessed as the zone of complete (blue) or partial (red) inhibition around the well. Abbreviations are: Native IL-8 (IL-8); IL-8α, (α); IL-8γ, (γ); IL-8α+IL-8γ (α+γ); RANTES, (RAN); GRO-α, (GRO); MCP-1, (MCP); lymphotactin, (LYM); platelet factor-4, (PF-4); and HNP-1, (HNP). Histograms are means±SEM (minimum n=2).
(§2) Briefly, the antimicrobial assays were performed against a panel of prototype human pathogens as previously detailed (Yoshimura, T., Matsushima, K., Tanaka, S., Robinson, E. A., Appella, E., Oppenheim, J. J. & Leonard, E. J. (1987) Proc Natl Acad Sci USA 84, 9233-7): Staphylococcus aureus (ATCC 27217; Gram-positive bacterium); Salmonella typhimurium (5996s; Gram-negative bacterium); and the fungus Candida albicans (ATCC 36082). Defensin HNP-1 was included in each assay as an internal control, and all assays were conducted a minimum of two independent times. Results of independent assays were analyzed using Wilcoxon Rank Sum analysis with Bonferroni correction for multiple comparisons.
(§3) For the Solid-Phase Assay, mid-logarithmic phase organisms were prepared, introduced into buffered agarose (PIPES [10 mM, pH 7.5] or MES [2.0 mM, pH 5.5]) to achieve final inocula of 10^6 CFU/ml, and poured into plates. Peptides (0.5 nmol/well [50 nmol/ml]) were added to wells in the seeded matrix, and incubated for 3h at 37° C. Nutrient overlay medium was applied, and assays incubated at 37° C. or 30° C. for bacteria or fungi, respectively. After 24h, zones of inhibition were measured, and results recorded as zones of complete or partial inhibition.

[2] = test system: Salmonella typhimurium (5996s); assay: Solid-phase antimicrobial assay of kinocidins; type: cell-based; details: S. typhimurium (Gram-negative); pH 5.5 or 7.5, not separated; 0.5 nmol/well
Protocol: as §1, §2, §3

[3] = test system: Staphylococcus aureus (ATCC 27217); assay: Solid-phase antimicrobial assay of kinocidins; type: cell-based; details: S. aureus (Gram-positive); pH 5.5 or 7.5, not separated; 0.5 nmol/well
Protocol: as §1, §2, §3

C. albicans ATCC 36082 = assay: Solution-phase microbicidal assay; type: cell-based, Candida albicans
Protocol: One million CFU of the indicated microorganism per milliliter were incubated with peptide (0.00125-20.0 nmol/ml) in either MES (2.0 mM, pH 5.5) or PIPES (10.0 mM, pH 7.5) for one hour at 37° C. Surviving CFU were enumerated and are described as change in the initial log 10 CFU. ∘, S. aureus ATCC 27217; ●, S. typhimurium strain 5990s; □, C. albicans ATCC 36082. Data are means±SD (minimum n=2).
as §2
To characterize IL-8's antimicrobial activity in more detail, a quantitative solution-phase assay was carried out at pH 5.5 and 7.5. Organisms were prepared and adjusted to 10^6 CFU/ml in PIPES or MES buffer as above but lacking agarose, and dispensed (5×10^4 CFU per 50 μl aliquot). Peptide (concentration range, 20-0.00125 nmol/ml) was introduced into the assay medium, and incubated for 1 hour at 37° C. After incubation, media were serially diluted and plated in triplicate for enumeration. […] IL-8 was also fungicidal for C. albicans at pH 7.5, with a 2-log reduction in surviving CFU over 1 hour at a concentration of 2.5 nmol/ml.

[4] = test system: Escherichia coli strain ML-35; assay: Ex vivo biomatrix assay in human whole blood, plasma and serum; type: cell-based
From the text: FIG. 18A-B show antimicrobial efficacy of IL-8α in human blood and blood-derived matrices as compared with artificial media (MHB) at pH 5.5 and 7.2. […] The E. coli inocula (INOC) were 10^5 CFU/ml, and the threshold of sensitivity was considered 0.3 log 10 CFU/ml.
To assess the physiological relevance of the observed in vitro (solid and solution-phase) antimicrobial activity for IL-8 and IL-8α, we assessed the efficacy of IL-8α in the ex vivo biomatrix assay. This assay has been developed to assess antimicrobial polypeptide efficacy in complex human blood matrices. Antimicrobial activity of IL-8α in human whole blood and homologous plasma and serum fractions was assessed (Yeaman, M. R., Gank, K. D., Bayer, A. S., and Brass, E. P. (2002) Antimicrob Agents Chemother 46, 3883-3891). For biomatrix studies, the well-characterized Escherichia coli strain ML-35 was used as the target organism (Lehrer, R. I., Barton, A., Daher, K, A., Harwig, S. S., Ganz, T., and Selsted, M. E. (1989) J Clin Invest 84, 553-561). This strain is resistant to serum, ideal for use in assessing peptide antimicrobial activity in blood and blood-derived matrices (Yeaman, M. R., Gank, K. D., Bayer, A. S., and Brass, E. P. (2002) Antimicrob Agents Chemother 46, 3883-3891). Organisms were cultured to mid-logarithmic phase in brain-heart infusion broth (Difco Laboratories, Detroit, Mich.) at 37° C., washed, and resuspended in PBS (Irvine Scientific; pH 7.2). Inocula were quantified spectrophotometrically and validated by quantitative culture. Biomatrices were distributed in 85-l aliquots into 96-well microtiter plates (Corning Glass Works, Corning, N.Y.) Peptide (5l; concentration range 1.0-50.0 μg/ml) was added either simultaneously with the microorganism (10 μl; 10^5 CFU/ml), or after a 120 min pre-incubation period in the biomatrix. The mixtures were incubated with constant agitation for 2 h at 37° C. After incubation, aliquots were diluted and quantitatively cultured in triplicate onto blood agar. Surviving organisms were enumerated as CFU/ml. […]

In the case of “KENWVQRVVEKFLKRAENS [IL-8α, synthetic α-helix domain of IL-8 (CXCL8)]”, the “antifungal activity (zone of inhibition)” value [1] is reported as “virtually indistinguishable from that of the native molecule”, the “antimicrobial activity (zone of inhibition)” value [2] is reported as “virtually indistinguishable from that of the native molecule” and the “antimicrobial activity (zone of inhibition)” value [3] is reported as “virtually indistinguishable from that of the native molecule”. For the same sequence, the “activity relative to native IL-8, by mass” value (C. albicans ATCC 36082; C. albicans, solution-phase) was 10 fold, the “reduction in surviving C. albicans” value (C. albicans ATCC 36082; pH 5.5, 0.125 nmol/ml (1.0 μg/ml), 1 hour exposure) was “five” and the “decrease in E. coli CFU” value ([4]; 10 μg/ml peptide, human blood and blood-derived matrices, 2 h at 37° C.) was no more than 5 log CFU/ml. For the same sequence, the “antimicrobial efficacy in biomatrix” value ([4]; plasma fractions or after 2 hour preincubation) was “less activity” and the “antimicrobial efficacy in biomatrix” value ([4]; whole blood and serum, co-incubation) was “Greatest efficacy”.

Source: patent US10329336B2, “Antimicrobial kinocidin compositions and methods of use” (LA Biomedical Research Institute at Harbor-UCLA Medical …, priority 2006, dated 2019)
